We go through four molecules from US5821222A, “Cyclic depsipeptides having 18 ring atoms for combating endoparasites” (Bayer Aktiengesellschaft, priority 1992, dated 1998).

One assay concerns Trichinella spiralis. As to the kind of experiment: Trichinella spiralis in vitro. Format: cell-based. Particulars: Trichina larvae from mouse muscle, incubation 5 days at 19° C.; tested at 100, 10 and 1 μm/ml. As to the method: Trichinella spiralis in vitro
(§1) Trichina lavae are isolated from mice's muscle and washed in 0.9% NaCl supplemented with 20 μg/ml sisomycin and 2 μg/ml clotrimazole. The actual incubation of approximately 20 trichinae per measurement is carried out in 2 ml of a solution composed of 10 g of Bacto Casitone, 5 g of yeast (yeast extract), 2.5 g of glucose, 0.4 g of KH2 PO4 and 0.4 g of K2 HPO4 per 500 ml, pH 7.2, containing 10 μm/ml of sisomycin and 1 μm/ml of clotrimazole. 10 mg of the substance to be tested are dissolved in 0.5 ml of DMSO, and such an amount is added to the incubation medium that the end concentration is 100, 10 and 1 μm/ml. The experiment is evaluated after incubation for 5 days at 19° C.

The test system of the next assay is Heterakis spumose. As to the kind of experiment: Heterakis spumose in vitro test (mobility and egg excretion). In kind it is cell-based. Particulars: 10 female nematodes, incubation 3 days at 37° C. As to the method:
as §1
Female Heterakis spumose nematodes are isolated from the colon and caecum of mice. 10 females are incubated for 3 days at 37° C. in 1.5 ml of medium used for the Trichinella spiarlis in-vitro test. The addition of test substances is likewise carried out as described for the trichina test. To test the anthelmintic activity, mobility and egg excretion are assessed in comparison with the control. Enniatins A1, B and B1 are active at a concentration of 10 μM/ml.

In the next assay the test system is Haemonchus contortus. As to the kind of experiment: In vivo nematode test Haemonchus contortus/sheep. The conditions noted are these: experimentally infected sheep, oral and/or intravenous; egg excretion stopped completely after treatment. On the procedure: Haemonchus contortus/sheep
Shaft which have been infected experimentally with Haemonchus contortus were treated after the prepatent time of the parasite had elapsed. The active compounds were applied orally and/or intravenously in the form of the pure active compound.
The degree of effectiveness is determined by quantitatively counting the worm eggs excreted with the faeces before and after the treatment.
If the egg excretion has stopped completely after the treatment, this means that the worms were aborted or are damaged to such an extent that they no longer produce eggs (dosis effectiva).
Active compounds tested and effective dosage rates (dosis effectiva) can be seen from the table which follows: […]

`CC[C@H](C)[C@H]1C(=O)O[C@H](C(C)C)C(=O)N(C)[C@@H]([C@@H](C)CC)C(=O)O[C@H](C(C)C)C(=O)N(C)[C@@H](C(C)C)C(=O)O[C@H](C(C)C)C(=O)N1C` [Enniatin A1, enniatin A1] registered an effective concentration in the assay on Trichinella spiralis of 100 μm/ml. Moreover, the “active concentration (mobility and egg excretion compared with control)” value with Heterakis spumose was determined as 10 μM/ml. The corresponding values for `CC[C@H](C)[C@H]1C(=O)O[C@H](C(C)C)C(=O)N(C)[C@@H](C(C)C)C(=O)O[C@H](C(C)C)C(=O)N(C)[C@@H](C(C)C)C(=O)O[C@H](C(C)C)C(=O)N1C` [Enniatin B1, enniatin B1] are 100 μm/ml and 10 μM/ml. The corresponding values for `CC(C)[C@H]1C(=O)O[C@H](C(C)C)C(=O)N(C)[C@@H](C(C)C)C(=O)O[C@H](C(C)C)C(=O)N(C)[C@@H](C(C)C)C(=O)O[C@H](C(C)C)C(=O)N1C` [Enniatin B, enniatin B] are 100 μm/ml and 10 μM/ml. Turning to `CC[C@H](C)[C@H]1C(=O)O[C@H](C)C(=O)N(C)[C@@H]([C@@H](C)CC)C(=O)O[C@H](C)C(=O)N(C)[C@@H]([C@@H](C)CC)C(=O)O[C@H](C)C(=O)N1C` [Example 1, Cyclo(N-methyl-L-isoleucyl-D-lactyl-N-methyl-L-isoleucyl-D-lactyl-N-methyl- L-isoleucyl-D-lactyl-)], the Dosis effectiva in the assay with Haemonchus contortus was 5 mg/kg.
